Data reported in patent publication US20050089839A1, “Assay” (priority 2001, published 2005).
Where a SMILES comes first, the peptide text is derived from it. The star is where a group is joined. Cbz = O=C(OCc1ccccc1)*

Tests used:
[1] = tested on: signal peptidase; conditions: previous studies (Weihofen et al., 2000); cited from earlier work
[2] = tested on: SPPase; test: Photo-labelling of CHAPS-solubilised ER membrane proteins with TBL4K, anti-biotin western blot; type: binding, dog; conditions: 50 nM TBL4K
Procedure: CHAPS-solubilised ER membrane proteins were mixed with 50 nM TBL4K (dissolved in DMSO) and samples incubated at 30° C. for 1 hour. Where indicated, samples were irradiated with UV light before precipitation with 10% trichloroacetic acid. Proteins were resolved on Tris-glycine acrylamide gels, transferred to PVDF membrane and biotinylated proteins were visualised by western blotting with polyclonal anti-biotin antibody.
For analytical labelling, 2 μl of CHAPS-solubilised ER membrane proteins were diluted with 16 μl of SPPase buffet (25 mM HEPES-KOH, pH 7.6, 100 mM KOAc, 2 mM Mg(OAc)2, 1 mM DTI) and supplemented with 50 nM TBL4K (dissolved in DMSO). Samples were incubated at 30° C. for 1 hour and subsequently irradiated with UV light (30 seconds; 350 W high pressure mercury lamp with a pyrex filter, 10 cm distance to lamp). Proteins were precipitated with 10% trichloroacetic acid and resolved on either Tris-glycine acrylamide gels (10% T, 2.7% C) (Lämmli, 1970 Nature, 227, 570-574). Biotinylated proteins were visualised by Western blotting with a polyclonal anti-biotin antibody (Bethyl). Western blot analysis was performed as described in Section 3, Materials and Methods for R308 antisera. […]

[3] = target: T1, signal peptide peptidase (SPPase) (Canis lupus familiaris, UniProt A0A8I3P6M4); test: In vitro translation/translocation of SP-E1/100 and core-E1/100 with ER-derived rough microsomes: SPPase processing; type: biochemical, dog; conditions: 10 μM (Z-LL)2-ketone; for Production of the 19 kDa core species (core179) from core-E1/100: FIG. 1B, FIG. 3B
T1 construct: translated in reticulocyte lysate in the presence of endoplasmic reticulum-(ER) derived rough microsomes; from tissue; host or cells: nuclease-treated rough microsomes from dog pancreas
Procedure: The mRNAs were translated in 25 μl rabbit reticulocyte lysate (Promega) containing [^35S]-methionine (Amersham-Pharmacia) and, where indicated, 2 eq of nuclease-treated rough microsomes prepared from dog pancreas (Martoglio et al., 1998, Cell Biology: A Laboratory Handbook. Academic Press, San Diego, Calif., vol 2, 265-274). To inhibit signal peptide peptidase (SPPase) processing, 10 μM (Z-LL)2-ketone was added to reactions (Weihofen et al., 2000 J Biol Chem 275, 30951-30956), and reactions were supplemented with 30 μM N-benzoyl-Asn-Leu-Thr-methyamide to prevent N-glycosylation of translated products (Martoglio et al., 1998, Cell Biology: A Laboratory Handbook. Academic Press, San Diego, Calif., vol 2,265-274). Samples were incubated for 30 min at 30° C. Reactions containing microsomes were next diluted with 25 μl of RM buffer (50 mM HEPES-KOH, pH7.6, 50 mM KOAc, 2 mM Mg(OAc)2, 1 mM DTT, 250 mM sucrose), and the salt concentration was raised to 500 mM KOAc. After incubation for 5 min on ice, membranes were separated by centrifugation through a 100 μl sucrose cushion (RM buffer with 500 mM KOAc and 500 mM sucrose) at 48,000 rpm for 3 min at 4° C. in a Beckman TLA100 rotor. Membrane pellets were prepared for SDS-PAGE as described (Weihofen et al., 2000 J Biol Chem. 275, 30951-30956).
This processing event was re-examined in an in vitro translation/translocation system. Two RNA substrates, that had been transcribed in vitro, were employed. One contained the E1 signal sequence and the N-terminal 100 aa of E1 (SP-E1/100), and the second consisted of the entire core protein, including the signal sequence, plus the N-terminal 100 aa of E1 (core-E1/100). These were translated in reticulocyte lysate in the presence of endoplasmic reticulum-(ER) derived rough microsomes and [^35S]-methionine. Microsomes were subsequently isolated and analysed for retention of radiolabelled translation products.

[4] = tested on: BHK C13 cells; test: Abundance of HCV core protein in electroporated BHK cells treated with MG132 (western blot, immunofluorescence); type: cell-based, baby hamster; conditions: MG132 for 12 hours at 37° C.
Procedure: BHK cells were electroporated with RNA and 5 hours after incubation at 37° C., they were treated with MG132 for 12 hours at 37° C. Cells were either fixed with methanol for indirect immunofluorescence (A) or extracts were prepared for Western blot analysis (B and C).
For the purposes of the present invention, the cultured cells derived from baby hamster kidney (BHK) C13 cells were grown and maintained in Glasgow minimal Eagle's Medium supplemented with 10% new-born calf serum (CS), 4% tryptose phosphate broth, and 100 IU/ml penicillin/streptomycin (ETC10). To treat cells with MG132 (Boston Biochem), cultured cells were incubated for 5 hours after electroporation at 37° C. and the BHK media was replaced with fresh media containing the protease inhibitor at a final concentration of […]. Incubation was continued at 37° C. for a further 12 hours before the cells were either harvested for Western blot analysis or fixed for indirect immunofluorescence studies.

[5] = tested on: SPPase; test: Signal peptide processing of p-PrlPP/29 by CHAPS-solubilised ER membrane proteins containing SPPase activity; type: biochemical, dog; design: SPF production: dose or concentration left out as unconfirmed
Procedure: Radio-labelled p-Prl^PP/29 signal peptide was generated by in vitro translation in wheat germ extract containing [^35S]-methionine. Peptide was added to CHAPS-solubilised membranes in the absence or presence of TBL4K (at the indicated final concentrations) and incubated for 1 hour at 30° C. Proteins were precipitated with 10% trichloroacetic acid and analysed by SDS-PAGE using Tris-bicine-urea acrylamide gels. Bands corresponding to signal peptide substrate (ps) and the fragment of signal peptide remaining after SPPase processing (SPF) are indicated.
The inhibitory effect of TBL4K on SPPase was assayed with CHAPS-solubilised ER membrane proteins and an in vitro translated peptide substrate. The substrate was a 29 aa residues long mutant signal peptide of pre-prolactin (p-Prl^PP/29; […]). The VV→PP mutation at the end of the signal peptide prevents cleavage by signal peptidase, which can cleave the peptide at the cryptic cleavage site at G27 when solubilised in CHAPS (B.M. unpublished). […] Proteins were precipitated by adding 4 μl of 100% trichloroacetic acid, and analysed by SDS-PAGE using Tris-bicine-urea acrylamide gels (15% T or 10% T, 5% C; 8 M urea) (Wiltfang et al., 1997 Electrophoresis 18, 527-532). […]

[6] = tested on: T2, p-Prl^PP/29, 29 aa mutant signal peptide of pre-prolactin
T2 sequence: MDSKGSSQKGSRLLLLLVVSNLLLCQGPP

[7] = tested on: SP-E1/100 MUTI
[8] = tested on: core-E1/100 MUTI
[9] = tested on: SP-E1/100 MUTIII
[10] = tested on: core-E1/100 MUTII
[11] = tested on: SP-E1/100 (wild type)
[12] = tested on: core-E1/100 MUTIII
[13] = tested on: SP-E1/100 MUTII
[14] = tested on: core-E1/100 (wild type)

T1 sequence (A0A8I3P6M4 entry or part of it): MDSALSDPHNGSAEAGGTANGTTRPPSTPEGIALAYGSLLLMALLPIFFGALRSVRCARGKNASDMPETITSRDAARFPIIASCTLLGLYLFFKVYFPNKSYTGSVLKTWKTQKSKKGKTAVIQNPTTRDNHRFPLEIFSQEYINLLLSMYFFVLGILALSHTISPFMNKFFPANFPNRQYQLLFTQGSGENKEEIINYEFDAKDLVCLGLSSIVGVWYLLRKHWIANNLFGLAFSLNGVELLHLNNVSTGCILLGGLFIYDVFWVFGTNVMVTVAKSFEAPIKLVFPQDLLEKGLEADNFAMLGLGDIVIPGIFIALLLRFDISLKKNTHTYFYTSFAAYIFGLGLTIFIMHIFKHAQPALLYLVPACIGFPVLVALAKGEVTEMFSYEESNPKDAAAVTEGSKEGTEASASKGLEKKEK

CC(C)C[C@H](NC(=O)OCc1ccccc1)C(=O)N[C@@H](CC(C)C)C(=O)NCC(=O)CNC(=O)[C@H](CC(C)C)NC(=O)[C@H](CC(C)C)NC(=O)OCc1ccccc1 [(Z-LL)2 ketone]
Effect on cleavage by signal peptidase [1]: does not affect
Labelling by TBL4K in presence of competitor ([2]; highest concentration of (Z-LL)2 ketone, FIG. 10): almost completely abolished
Cleavage by SPPase of the signal peptide generated from SP-E1/100 ([3]; FIG. 1A): blocked
Production of the 19 kDa core species (core179) from core-E1/100 [3]: blocked
Production of the 19 kDa core species (core179) from core-E1/100 ([3]; listed as SPPase inhibitor): not generated

CC(C)C[C@@H](C=O)NC(=O)[C@H](CC(C)C)NC(=O)[C@H](CC(C)C)NC(=O)OCc1ccccc1 [MG132] (Cbz-Leu-Leu-Leu-aldehyde)
Levels of core produced by pSF/CE1E2 (core variant lacking residues 125-144) ([4]; FIG. 7B lanes 3 and 4): enhanced levels
Amount of core in cells electroporated with pSF/MUTIII RNA (125-144 deleted, signal peptide mutations) ([4]; FIG. 7B lanes 5 and 6): did not affect

(TDBA-LL)(Biotin-X-LL) ketone [TBL4K]
SPF production ([5]; highest concentration used): abolished
IC50 ([5]; substrate p-PrlPP/29, 1 hour at 30° C., FIG. 9, read-out: IC50 for inhibition of SPPase activity): ~50 nM
Proteins labelled after UV activation ([2]; UV light, FIG. 10 lane 3): labelling of a major product of about 42 kDa

signal peptide peptidase (SPPase) of ER-derived rough microsomes from dog pancreas
signal peptide processing (production of the SPF fragment) with CHAPS-solubilised ER membrane proteins [6]: signal peptide processing reactions were performed with a substrate, p-Prl^PP/29, that corresponds to a mutated signal peptide of pre-prolactin, and CHAPS-solubilised ER membrane proteins containing SPPase activity
cleavage of the signal peptide (in vitro translation/translocation) [7]: cleavage of the signal peptide was reduced with both mutants, but to a greater extent with pSP/MUTII as compared to pSP/MUTI
efficiency of processing (core179 relative to core191+core179) [8]: reduced efficiency of processing from 40% to 12%
processing of the signal peptide by SPPase [9]: less than 5% processing of the signal peptide by SPPase
product cleaved by SPPase (in vitro translation/translocation) [10]: failed to generate any detectable product that had been cleaved by SPPase
signal peptide processing by SPPase (in vitro translation/translocation, with and without (Z-LL)2 ketone) [11]: the internal signal sequence at the junction of core-E1 functions as a typical ER targeting signal and is a substrate not only for signal peptidase but also for SPPase
product cleaved by SPPase (in vitro translation/translocation) [12]: failed to generate any detectable product that had been cleaved by SPPase
cleavage of the signal peptide (in vitro translation/translocation) [13]: cleavage of the signal peptide was reduced with both mutants, but to a greater extent with pSP/MUTII as compared to pSP/MUTI
efficiency of processing (core179 relative to core191+core179) [14]: reduced efficiency of processing from 40% to 12%
production of the 19 kDa core species (in vitro translation/translocation, with and without (Z-LL)2 ketone) [14]: the signal peptide at the junction of core-E1 sequences in HCV is first cleaved by signal peptidase and subsequently processed by SPPase
